Assay results reported in patent US20230233569A1 (Revolution Medicines, Inc., priority 2020, published 2023).
“And” between values parts separate entries of the source, which are not always exact repeats. Equal entries are not always repeated.

Legend:
NRAS Q61R = NRAS Q61R (Homo sapiens, UniProt P01111+P62937, Q61R); experiment: Disruption of BRAF RBD interaction with Ras (FRET / MOA assay, with Cyclophilin A); type: biochemical; conditions: NRAS Q61R; read-out: NRAS Q61R FRET data IC50
Method in brief: (§1)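 TR-FRET in 25 mM HEPES pH 7.3, 100 mM NaCl, 5 mM MgCl2, 0.1% BSA: 25 μM Cyclophilin A, 12.5 nM His6-Ras-GMPPNP, 50 nM GST-BRAF RBD with compound (10-point 3-fold series from 30 μM), 3 h at 25° C. Anti-His Eu/anti-GST APC added, 1.5 h more; IC50 from decreased FRET ratio versus DMSO.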

NRAS Q61K = NRAS Q61K (Homo sapiens, UniProt P01111+P62937, Q61K); experiment: as above; type: biochemical; conditions: NRAS Q61K; read-out: NRAS Q61K FRET data IC50
Method in brief: as §1

NRAS G12C = NRAS G12C (Homo sapiens, UniProt P01111+P62937, G12C); experiment: as above; type: biochemical; conditions: NRAS G12C; read-out: NRAS G12C FRET data IC50
[1] = system: K-Ras G12C (NCI-H358 cells); experiment: Potency assay: pERK (AlphaLISA SureFire or In-Cell Western); type: cell-based; conditions: Homo sapiens, NCI-H358; H358 KRAS G12C; read-out: pERK EC50
Experimental: (§2) The purpose of this assay is to measure the ability of test compounds to inhibit K-Ras in cells. […] This procedure measures a decrease in cellular pERK in response to test compounds.
(§3) NCI-H358 cells were grown and maintained using media and procedures recommended by the ATCC. On the day prior to compound addition, cells were plated in 384-well cell culture plates (40 μl/well) and grown overnight in a 37° C., 5% CO2 incubator. Test compounds were prepared in 10, 3-fold dilutions in DMSO, with a high concentration of 10 mM. On the day of assay, 40 nL of test compound was added to each well of cell culture plate using an Echo550 liquid handler (LabCyte®). Concentrations of test compound were tested in duplicate. After compound addition, cells were incubated 4 hours at 37° C., 5% CO2. Following incubation, culture medium was removed and cells were washed once with phosphate buffered saline.
(§4) In some experiments, cellular pERK level was determined using the AlphaLISA SureFire Ultra p-ERK1/2 Assay Kit (PerkinElmer). Cells were lysed in 25 μL lysis buffer, with shaking at 600 RPM at room temperature. […] After a 2-hour incubation in the dark, 5 μL donor mix was added, plate was sealed, and incubated 2 hours at room temperature. Signal was read on an Envision plate reader (PerkinElmer) using standard AlphaLISA settings. Analysis of raw data was carried out in Excel (Microsoft) and Prism (GraphPad). Signal was plotted vs. the decadal logarithm of compound concentration, and IC50 was determined by fitting a 4-parameter sigmoidal concentration response model.
In other experiments, cellular pERK was determined by In-Cell Western. […] Fixed cells were washed 4 times for 5 minutes with TBS containing 0.1% Triton X-100 (TBST) and then blocked with 100 μL Odyssey blocking buffer (LI-COR) for 60 minutes at room temperature. […] Cells were washed 4 times for 5 minutes with TBST. Secondary antibody (IR-800CW rabbit, LI-COR, diluted 1:800) and DNA stain DRAQ5 (LI-COR, diluted 1:2000) were added and incubated 1-2 hours at room temperature. Cells were washed 4 times for 5 minutes with TBST. Plates were scanned on a LI-COR Odyssey CLx Imager. Analysis of raw data was carried out in Excel (Microsoft) and Prism (GraphPad). Signal was plotted vs. the decadal logarithm of compound concentration, and IC50 was determined by fitting a 4-parameter sigmoidal concentration response model.
as §2
as §3, with “mM. On day of” for “mM. On the day of”, “assay, 40 nl of test” for “assay, 40 nL of test”
as §4, with “μl” for “μL”, “sealed” for “sealed,”

NCI-H358 (K-Ras G12C) = experiment: CellTiter-Glo cell viability assay, 5-day treatment; type: cell-based; conditions: Homo sapiens, NCI-H358, H358, K-Ras G12C; read-out: Additional H358 Cell Viability assay data (K-Ras G12C, IC50)
Method in brief: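 Viability is read as luminescence on day 5 after direct compound addition to plated cells, following about 30 minutes' room-temperature equilibration. Each signal is scaled to mean DMSO as 100%.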

KRAS G12C = KRAS G12C (Homo sapiens, UniProt P01116+P62937, G12C); experiment: Disruption of BRAF RBD interaction with Ras (FRET / MOA assay, with Cyclophilin A); type: biochemical; conditions: KRAS G12C; read-out: KRAS G12C FRET data IC50
Method in brief: (§5)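 TR-FRET readout: a drop in ratio relative to DMSO wells marks disruption of the K-Ras:BRAF RBD complex via compound-induced K-Ras–Cyclophilin A ternary complex. Dosing used ten 3-fold steps from 30 μM final, 3 h at 25 °C, then Eu-anti-His 10 nM plus APC-anti-GST 50 nM for another 1.5 h. Values are IC50s.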

KRAS G12V = KRAS G12V (Homo sapiens, UniProt P01116+P62937, G12V); experiment: as above; type: biochemical; conditions: KRAS G12V; read-out: KRAS G12V FRET data IC50
Method in brief: as §5

KRAS G13C = KRAS G13C (Homo sapiens, UniProt P01116+P62937, G13C); experiment: as above; type: biochemical; conditions: KRAS G13C; read-out: KRAS G13C FRET data IC50
Method in brief: as §5

KRAS G12D = KRAS G12D (Homo sapiens, UniProt P01116+P62937, G12D); experiment: as above; type: biochemical; conditions: read-out: KRAS G12D FRET data, IC50
Method in brief: as §5

KRAS G13D = KRAS G13D (Homo sapiens, UniProt P01116+P62937, G13D); experiment: as above; type: biochemical; conditions: KRAS G13D; read-out: KRAS G13D FRET data IC50
Method in brief: as §5

KRAS WT = KRAS WT (Homo sapiens, UniProt P01116+P62937); experiment: as above; type: biochemical; conditions: KRAS WT; read-out: KRAS WT FRET data IC50
Method in brief: as §5

KRAS G12S = KRAS G12S (Homo sapiens, UniProt P01116+P62937, G12S); experiment: as above; type: biochemical; conditions: read-out: KRAS G12S FRET data, IC50
Method in brief: as §5

Sequence of KRAS G12D (P01116 1-169 isoform P01116-2 G12D limits assumed): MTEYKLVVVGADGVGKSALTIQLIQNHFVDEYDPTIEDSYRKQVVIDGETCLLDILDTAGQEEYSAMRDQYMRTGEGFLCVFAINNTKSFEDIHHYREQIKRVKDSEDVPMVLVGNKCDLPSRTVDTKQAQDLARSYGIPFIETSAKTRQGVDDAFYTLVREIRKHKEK
Sequence of KRAS G12D (P62937 whole entry): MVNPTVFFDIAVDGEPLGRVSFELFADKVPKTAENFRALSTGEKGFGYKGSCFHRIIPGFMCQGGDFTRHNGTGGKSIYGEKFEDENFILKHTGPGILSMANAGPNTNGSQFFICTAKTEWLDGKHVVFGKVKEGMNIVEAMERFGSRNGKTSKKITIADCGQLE
Sequence of KRAS G12V (P01116 1-169 isoform P01116-2 G12V limits assumed): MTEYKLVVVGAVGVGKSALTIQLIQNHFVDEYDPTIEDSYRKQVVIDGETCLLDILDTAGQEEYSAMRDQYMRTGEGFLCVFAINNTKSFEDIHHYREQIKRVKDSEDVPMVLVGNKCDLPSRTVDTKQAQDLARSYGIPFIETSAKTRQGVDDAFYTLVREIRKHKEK
Sequence of KRAS G12V (P62937 whole entry): as the sequence (P62937 whole entry) above
Sequence of KRAS G13D (P01116 1-169 isoform P01116-2 G13D limits assumed): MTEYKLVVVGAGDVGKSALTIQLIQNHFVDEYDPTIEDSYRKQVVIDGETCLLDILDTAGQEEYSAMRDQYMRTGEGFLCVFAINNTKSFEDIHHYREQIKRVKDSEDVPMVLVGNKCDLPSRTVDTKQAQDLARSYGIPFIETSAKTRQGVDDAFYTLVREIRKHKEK
Sequence of KRAS G13D (P62937 whole entry): as the sequence (P62937 whole entry) above
Sequence of KRAS WT (P01116 1-169 isoform P01116-2 limits assumed): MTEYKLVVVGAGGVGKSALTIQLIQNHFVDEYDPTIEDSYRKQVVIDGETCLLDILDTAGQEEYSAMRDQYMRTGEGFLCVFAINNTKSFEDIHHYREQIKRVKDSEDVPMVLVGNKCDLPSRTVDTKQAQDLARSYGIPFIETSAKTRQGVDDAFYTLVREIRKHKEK
Sequence of KRAS WT (P62937 whole entry): as the sequence (P62937 whole entry) above
Sequence of KRAS G12C (P01116 1-169 isoform P01116-2 G12C): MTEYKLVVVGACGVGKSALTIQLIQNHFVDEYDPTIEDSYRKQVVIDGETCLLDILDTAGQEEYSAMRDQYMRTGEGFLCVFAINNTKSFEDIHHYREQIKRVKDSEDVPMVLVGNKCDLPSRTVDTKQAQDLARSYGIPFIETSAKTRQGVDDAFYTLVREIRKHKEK
Sequence of KRAS G12C (P62937 whole entry): as the sequence (P62937 whole entry) above
Sequence of NRAS G12C (P01111 whole entry G12C): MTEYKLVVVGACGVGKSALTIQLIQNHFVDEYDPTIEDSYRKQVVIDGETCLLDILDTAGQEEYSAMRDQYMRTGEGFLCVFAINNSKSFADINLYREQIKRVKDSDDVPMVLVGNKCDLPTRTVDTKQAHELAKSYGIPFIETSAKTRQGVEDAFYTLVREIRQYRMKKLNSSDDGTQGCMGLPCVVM
Sequence of NRAS G12C (P62937 whole entry): as the sequence (P62937 whole entry) above
Sequence of KRAS G12S (P01116 1-169 isoform P01116-2 G12S limits assumed): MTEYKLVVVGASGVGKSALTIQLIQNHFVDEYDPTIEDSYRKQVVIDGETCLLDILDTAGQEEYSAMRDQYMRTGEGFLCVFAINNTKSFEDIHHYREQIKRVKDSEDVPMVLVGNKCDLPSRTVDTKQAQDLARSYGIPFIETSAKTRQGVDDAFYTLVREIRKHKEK
Sequence of KRAS G12S (P62937 whole entry): as the sequence (P62937 whole entry) above
Sequence of KRAS G13C (P01116 1-169 isoform P01116-2 G13C): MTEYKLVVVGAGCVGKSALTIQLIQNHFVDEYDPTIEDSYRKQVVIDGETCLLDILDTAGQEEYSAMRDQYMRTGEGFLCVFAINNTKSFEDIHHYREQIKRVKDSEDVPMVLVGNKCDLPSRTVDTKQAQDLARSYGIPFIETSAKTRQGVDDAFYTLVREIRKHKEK
Sequence of KRAS G13C (P62937 whole entry): as the sequence (P62937 whole entry) above
Sequence of NRAS Q61K (P01111 whole entry Q61K): as the sequence (P01111 whole entry G12C) above, with C12G, Q61K counted along it
Sequence of NRAS Q61K (P62937 whole entry): as the sequence (P62937 whole entry) above
Sequence of NRAS Q61R (P01111 whole entry Q61R): as the sequence (P01111 whole entry G12C) above, with C12G, Q61R counted along it
Sequence of NRAS Q61R (P62937 whole entry): as the sequence (P62937 whole entry) above

Row | Structure (SMILES) | IC50 (NRAS Q61R) | IC50 (NRAS Q61K) | IC50 (NRAS G12C) | EC50 [1] | IC50 (NCI-H358 (K-Ras G12C)) | IC50 (KRAS G12C) | IC50 (KRAS G12V) | IC50 (KRAS G13C) | IC50 (KRAS G12D) | IC50 (KRAS G13D) | IC50 (KRAS WT) | IC50 (KRAS G12S)
1 | C=CC(=O)N(C)[C@H]1CN(C(=O)N(C)[C@H](C(=O)N[C@H]2Cc3nc(cs3)-c3ccc4c(c3)c(c(-c3cccnc3[C@H](C)OC)n4CC)CC(C)(C)COC(=O)C3CCCN(N3)C2=O)C(C)C)C[C@@H]1F (stereo partly shown) [Example A632] | 100 to 1000 nM | 100 to 1000 nM | 10 to 100 nM | < 5000 nM | 100 to 1000 nM | – | – | – | – | – | – | –
2 | CO[C@@H](C)c1ncccc1-c1c2c3cc(ccc3n1CC(F)(F)F)N1CCO[C@@H](C[C@H](NC(=O)[C@H](C(C)C)N3CC[C@@]4(CCN(C(=O)C#CC(C)(C)N(C)C)C4)C3=O)C(=O)N3CCCC(N3)C(=O)OCC(C)(C)C2)C1 [Example A628] | > 10000 nM | > 10000 nM | < 10 nM | < 5000 nM | 10 to 100 nM | – | – | – | – | – | – | –
3 | CCn1c(-c2cccnc2[C@H](C)OC)c2c3cc(ccc31)-c1csc(n1)C[C@H](NC(=O)[C@H](C(C)C)N(C)C(=O)[C@H]1CCN(C(=O)/C=C/CN(C)C)C1)C(=O)N1CCC[C@H](N1)C(=O)OCC(C)(C)C2 [Example A282] | – | – | 100 to 1000 nM | < 5000 nM | 10 to 100 nM | 100 to 1000 nM | 1000 to 10000 nM | 1000 to 10000 nM | 1000 to 10000 nM | 1000 to 10000 nM | 1000 to 10000 nM | 1000 to 10000 nM
4 | CCn1c(-c2cccnc2[C@H](C)OC)c2c3cc(ccc31)-c1cc(sn1)C[C@H](NC(=O)[C@H](C(C)C)N(C)C(=O)[C@@H]1CCN(C(=O)C#CCN3CCOCC3)C1)C(=O)N1CCC[C@H](N1)C(=O)OCC(C)(C)C2 [Example A201] | – | – | 100 to 1000 nM | < 5000 nM | 10 to 100 nM | 10 to 100 nM | > 10000 nM | 1000 to 10000 nM | > 10000 nM | > 10000 nM | > 10000 nM | > 10000 nM
5 | CCn1c(-c2cccnc2COC)c2c3cc(ccc31)-c1cc(O)cc(c1)C[C@H](NC(=O)[C@@H](C(C)C)N(C)C(=O)[C@H]1CCN(C(=O)C#CCN(C)C)C1)C(=O)N1CCC[C@H](N1)C(=O)OCC(C)(C)C2 [Example A156] | – | – | 100 to 1000 nM | < 5000 nM | 10 to 100 nM | 10 to 100 nM | > 10000 nM | 1000 to 10000 nM | 1000 to 10000 nM | 1000 to 10000 nM | > 10000 nM | > 10000 nM
6 | CCn1c(-c2cccnc2[C@H](C)OC)c2c3cc(ccc31)-c1cccc(c1)C[C@H](NC(=O)[C@H](C(C)C)N(C)C(=O)[C@H]1CCN(C(=O)C#CC3CC(F)(F)CN3C)C1)C(=O)N1CCC[C@H](N1)C(=O)OCC(C)(C)C2 (stereo partly shown) [Example A526] | – | – | 10 to 100 nM | < 5000 nM | < 10 nM | 10 to 100 nM | 1000 to 10000 nM | 1000 to 10000 nM | > 10000 nM | > 10000 nM | 1000 to 10000 nM | 1000 to 10000 nM
7 | CCn1c(-c2cccnc2[C@H](C)OC)c2c3cc(ccc31)-c1cc(O)cc(c1)C[C@H](NC(=O)[C@H](C(C)C)N(C)C(=O)c1nc(NC(=O)/C=C/CN(C)C)cs1)C(=O)N1CCC[C@H](N1)C(=O)OCC(C)(C)C2 [Example A258] | – | – | 100 to 1000 nM | < 5000 nM | 100 to 1000 nM | 100 to 1000 nM | 100 to 1000 nM and 1000 to 10000 nM | < 10 nM and 10 to 100 nM | 1000 to 10000 nM and > 10000 nM | 100 to 1000 nM and 1000 to 10000 nM | 100 to 1000 nM and 1000 to 10000 nM | 1000 to 10000 nM
8 | C=CC(=O)N1CC[C@H](C(=O)N(C)[C@H](C(=O)N[C@H]2Cc3cc(O)cc(c3)-c3ccc4c(c3)c(c(-c3cccnc3[C@H](C)OC)n4C)CC(C)(C)COC(=O)[C@@H]3CCCN(N3)C2=O)C(C)C)C1 [Example A197] | – | – | 100 to 1000 nM | < 5000 nM | 10 to 100 nM | 100 to 1000 nM | 1000 to 10000 nM | 1000 to 10000 nM | > 10000 nM | 1000 to 10000 nM | 1000 to 10000 nM | 1000 to 10000 nM
9 | CCn1c(-c2cccnc2[C@H](C)OC)c2c3cc(ccc31)-c1cccc(c1)C[C@H](NC(=O)[C@H](C(C)C)N(C)C(=O)[C@@H]1CCN(C(=O)C#CC(C)(C)N3CCC3)C1)C(=O)N1CCC[C@H](N1)C(=O)OCC(C)(C)C2 [Example A476] | – | – | 10 to 100 nM | < 5000 nM | < 10 nM | 10 to 100 nM | 1000 to 10000 nM | 100 to 1000 nM | 1000 to 10000 nM | 1000 to 10000 nM | 1000 to 10000 nM | 1000 to 10000 nM
10 | CCn1c(-c2cncnc2)c2c3cc(ccc31)-c1cc(O)cc(c1)C[C@H](NC(=O)[C@H](C(C)C)N(C)C(=O)[C@H]1CCN(C(=O)C#CCN(C)C)C1)C(=O)N1CCC[C@H](N1)C(=O)OCC(C)(C)C2 [Example A108] | – | – | < 10 nM | < 5000 nM | < 10 nM | < 10 nM | 1000 to 10000 nM | 10 to 100 nM | 1000 to 10000 nM | 1000 to 10000 nM | 1000 to 10000 nM | 1000 to 10000 nM
11 | CC#C[S+]([O-])N1CC[C@H](C(=O)N(C)[C@H](C(=O)N[C@H]2Cc3cccc(c3)-c3ccc4c(c3)c(c(-c3cccnc3[C@H](C)OC)n4CC)CC(C)(C)COC(=O)[C@@H]3CCCN(N3)C2=O)C2CCCC2)C1 (stereo partly shown) [Example A310] | – | – | 100 to 1000 nM | < 5000 nM | 10 to 100 nM | 100 to 1000 nM | 1000 to 10000 nM | 1000 to 10000 nM | > 10000 nM | > 10000 nM | 1000 to 10000 nM | 1000 to 10000 nM
